Experimental data reported in patent US20260274794A1, “COMPOUNDS, COMPOSITIONS, AND METHOD OF INHIBITING TAU PROTEIN AND ALPHASYNUCLEIN AGGREGATION” (Purdue Research Foundation, priority 2023, published 2026).

Experiments:
Type in all cases: biochemical
α-synuclein (α-syn) = target: T1, α-synuclein (α-syn) (Homo sapiens, UniProt P37840); assay: Thioflavin T (ThT) fluorescence assay of α-syn fibril formation; conditions: compound 100 μM; ThT fluorescence intensity at plateau phase, control = 100%
T1 construct: purchased rPeptide, LLC (Watkinsville, GA)
Experimental: (§1) ThT fluorescence is routinely established assay to follow the kinetics of α-syn fibril formation with different drug candidate treatments. Compounds were first tested at a final of concentration of 100 μM and α-syn and 2N4R tau were prepared at 2 μM and 6 μM, respectively. Compounds with highest anti-fibrillary activity were tested at 3.125, 6.25, 12.5, 25, 50, and 100 μM to obtain dose-response curves.
For the α-syn ThT assay, ThT was used at a final concentration of 20 μM. α-Syn was dissolved in 20 mM Tris-HCl (pH 7.4) supplemented with 100 mM NaCl to a stock solution of 280 μM (1 mg/250 μL) prior to resuspension in ThT buffer to obtain a final concentration of 2 μM. Compounds and ThT were first added to the wells. The kinetics of fibril formation begin when the α-syn was solubilized in the ThT buffer (10 mM PBS buffer (pH 7.4), supplemented with 0.5 mM SDS and 300 mM NaCl) and added to a non-treated black 96 well microplate with a transparent flat bottom. Each well was filled with a maximum volume of 150 μL buffer with one 3 mm borosilicate bead. The background fluorescence signal consisted of ThT in buffer and 0.25% DMSO without α-syn. The excitation and emission wavelengths were set at 440 and 485 nm, respectively, with a Synergy HT multi-mode microplate reader (BioTek, Winooski, VT). Measurements were taken at 37° C. every 20 minutes over 50 hours of shaking prior to reading the plate. Samples were measured in three replicates and the experiments were repeated three times using different α-syn stock solutions. For each time point, the background fluorescence signal was subtracted. Arbitrary units of fluorescence were calculated from the mean values normalized against the maximum value in each completed assay. Arbitrarily, the maximum value (100%) for the fluorescence intensity was established for α-syn.
Compounds were tested at 100 μM with α-syn at 6 μM, resulting in a molar ratio of approximately 1:16 (protein:compound). The plateau phase of sigmoidal kinetics is of particular interest because it is the phase in which mature fibrils form and where aggregation and disaggregation are at equilibrium with each other; therefore, the fluorescence intensity between multiple compounds at the plateau phase can be compared to identify the compounds with the most promising anti-aggregation activity (Table 1, column α-syn ThT %). […] Compound 17 was the best representative of the 5-aminoindole series and moved to the tier-2 assays, even though the resulting ThT percentage of fluorescence intensity was 10% higher than the cut off. These compounds were then tested on tau 2N4R ThT fluorescence assays.

tau isoform 2N4R [1] = target: T2, tau isoform 2N4R (Homo sapiens, UniProt P10636); assay: ThT fluorescence assay of tau isoform 2N4R fibril formation; conditions: compound 100 μM, tau 2N4R 6 μM
T2 construct: made in house; host or cells: E. coli BL21 (DE3), vector pRK172
Experimental: as §1
Concerning the non-phosphorylated tau (isoform 2N4R) kinetics of fibril formation, ThT was performed with the tau protein solution was diluted to a final concentration of 6 μM in PBS (pH 7.4) supplemented with 1.5 μM heparin, 20 μM ThT, 2.5 mM DTT, and 100 μM compound. Aliquots of the diluted protein solution (100 μL each) were pipetted into the wells of a 96-well plate, and a Teflon ball was added to each well. The plate was incubated at 37° C. with constant shaking at 1,000 rpm in a Tecan Stark plate reader. ThT fluorescence was measured every 15 min with excitation and emission wavelengths of 440 nm and 480 nm, and the data were plotted using GraphPad Prism.
Various structural analogs were first tested at a final concentration of 100 μM in the presence of tau 2N4R at 6 μM. Compounds 2, 4-8, and 17 were pre-selected with α-syn ThT assay prior to evaluation on the tau isoform 2N4R.

tau isoform 2N4R [2] = target: T2, tau isoform 2N4R; assay: PICUP assay of tau isoform 2N4R oligomerization; conditions: compound 50 μM
Experimental: To force the oligomerization by cross-linking, α-syn (from Rpeptide, LLC) and tau isoform 2N4R were diluted in 10 mM phosphate buffer (pH 7.4) to reach a final concentration of 10 μM [27]. Different compounds were added to the protein solution at a final concentration of 50 μM, resulting in a molar ratio of 1:5. To confirm the gradual effect of the compounds on the inhibition of α-syn oligomerization, compounds were tested at final concentration of 3.125, 6.25, 12.5, 25, and 50 μM. The controls consisted of samples without light exposition, without Ru(bpy), and without compound (i.e., 0.125% DMSO). The cross-linking reaction was initiated by the addition of 2 μL of Ru(bpy) (300 μM final concentration) and 2 μL ammonium persulfate (6 mM final concentration). Samples were irradiated immediately. Light exposition was of 1 second duration for ca-syn and 3 second duration for tau isoform 2N4R, with a 53 W (120 V) incandescent lamp installed in a homemade dark-box. Each tube contained a final volume of 20 μL. After irradiation, 8.3 μL. of Lammeli loading buffer containing 15% β-mercaptoethanol was immediately added to the solution, followed by incubation at 95° C. for 10 minutes. The cross-linked samples were separated on a 16% SDS-Page gel and visualized by Coomassie blue staining.
One end point used to verify the propensity of misfolded protein in the drug discovery field is the inhibition of oligomer formation. The photo-induced cross-linking of unmodified proteins (PICUP) assay was used to investigate α-syn (60 μM) and tau isoform 2N4R (6 μM) oligomerization in the presence of eight amide compounds (2, 4, 5, 6, 7, 8, 13, and 17 at 50 μM, i.e., ~molar ratio 1:8 for tau). After being subjected to short light exposure, α-syn and tau were cross-linked and Coomassie-stained resolved as a higher molecular weight compared to control (0.125% DMSO). […] Compound 13 was used as a negative control for the α-syn PICUP.
PICUP assays were performed with different concentrations (50 μM, 25 μM, 12.5 μM, 6.25 μM, 3.125 μM; control=0.125% DMSO) for each lead compound.

T2 sequence (P10636 1-441 isoform P10636-8): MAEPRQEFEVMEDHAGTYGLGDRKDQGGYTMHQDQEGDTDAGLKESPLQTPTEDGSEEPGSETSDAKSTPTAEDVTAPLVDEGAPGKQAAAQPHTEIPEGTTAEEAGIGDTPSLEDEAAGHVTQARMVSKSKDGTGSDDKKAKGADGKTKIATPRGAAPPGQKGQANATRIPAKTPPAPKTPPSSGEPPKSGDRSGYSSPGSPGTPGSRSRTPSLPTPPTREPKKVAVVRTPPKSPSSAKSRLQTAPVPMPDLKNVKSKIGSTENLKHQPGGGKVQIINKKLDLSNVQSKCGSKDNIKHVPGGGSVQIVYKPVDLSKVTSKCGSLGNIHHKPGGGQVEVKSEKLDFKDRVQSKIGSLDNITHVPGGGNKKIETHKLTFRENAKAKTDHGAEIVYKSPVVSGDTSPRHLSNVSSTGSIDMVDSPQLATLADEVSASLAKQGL

O=C(Nc1ccc2[nH]ccc2c1)c1ccccc1 [Compound 10, N-(1H-indol-5-yl)benzamide]
remaining activity at 100 µM (α-synuclein (α-syn)): 102 ± 13.3%

COc1cccc(C(=O)Nc2ccc3[nH]ccc3c2)c1 [Compound 11, N-(1H-indol-5-yl)-3-methoxybenzamide]
remaining activity at 100 µM (α-synuclein (α-syn)): 48.6 ± 2.6%

O=C(Nc1ccc2[nH]ccc2c1)c1cccs1 [Compound 9, N-(1H-indol-5-yl)thiophene-2-carboxamide]
remaining activity at 100 µM (α-synuclein (α-syn)): 40.5 ± 2.3%

Nc1cccc(C(=O)Nc2ccc3[nH]ccc3c2)c1 [Compound 17, 3-amino-(1H-indol-5-yl)benzamide]
remaining activity at 100 µM (α-synuclein (α-syn)): 40%

O=C(Nc1cccc2[nH]ccc12)c1ccc(C(F)(F)F)cc1 [Compound 6, N-(1H-indol-4-yl)-4-(rifluoromethyl)benzamide]
remaining activity at 100 µM (α-synuclein (α-syn)): ≤ 30%
effect on tau isoform 2N4R fibril formation (ThT) (tau isoform 2N4R [1]): weaker anti-fibrilization effect
tau isoform 2N4R oligomerization (PICUP crosslinking) (tau isoform 2N4R [2]): strongest oligomer band

COc1cccc(C(=O)Nc2cccc3[nH]ccc23)c1 [Compound 3]
remaining activity at 100 µM (α-synuclein (α-syn)): 43%

O=C(Nc1ccc2[nH]ccc2c1)c1ccc(Cl)cc1 [Compound 12, 4-chloro-N-(1H-indol-5-yl)benzamide]
remaining activity at 100 µM (α-synuclein (α-syn)): 67.5 ± 16.3%

N#Cc1ccc(C(=O)Nc2ccc3[nH]ccc3c2)cc1 [Compound 15, 4-cyano-N-(1H-indol-5-yl)benzamide]
remaining activity at 100 µM (α-synuclein (α-syn)): 62.7 ± 4.1%

N#Cc1ccc(C(=O)Nc2cccc3[nH]ccc23)cc1 [Compound 7, 4-cyano-N-(1H-indol-4-yl)benzamide]
remaining activity at 100 µM (α-synuclein (α-syn)): ≤ 30%
effect on tau isoform 2N4R fibril formation (ThT) (tau isoform 2N4R [1]): good inhibitory effect

O=C(Nc1cccc2[nH]ccc12)c1ccccc1Cl [Compound 5, 2-chloro-N-(1H-indol-4-yl)benzamide]
remaining activity at 100 µM (α-synuclein (α-syn)): ≤ 30%
effect on tau isoform 2N4R fibril formation (ThT) (tau isoform 2N4R [1]): good inhibitory effect

O=C(Nc1cccc2[nH]ccc12)c1ccc(Cl)cc1 [Compound 4, 4-chloro-N-(1H-indol-4-yl)benzamide]
remaining activity at 100 µM (α-synuclein (α-syn)): ≤ 30%
effect on tau isoform 2N4R fibril formation (ThT) (tau isoform 2N4R [1]): good inhibitory effect

O=C(Nc1ccc2[nH]ccc2c1)c1ccc(F)cc1 [Compound 16, 4-fluoro-N-(1H-indol-5-yl)benzamide]
remaining activity at 100 µM (α-synuclein (α-syn)): 48.5 ± 1.7%

O=C(Nc1cccc2[nH]ccc12)c1cccs1 [Compound 1]
remaining activity at 100 µM (α-synuclein (α-syn)): 64%

O=C(Nc1ccc2c(c1)Cc1ccccc1-2)c1ccc(Cl)cc1 [Compound 18, 4-chloro-N-(9H-fluoren-2-yl)benzamide]
remaining activity at 100 µM (α-synuclein (α-syn)): 69.4%
α-Syn ThT% (α-synuclein (α-syn)): 69.4 ± 6.70%
